Measurements as given in patent publication US6610698B2, “Substituted pyrimidine compounds and methods of use” (Amgen, Inc., priority 1996, dated 2003).
Structures can show the parent of a compound that is named as a salt. Where two headings read alike, the source gives them in different places.

System: TNF production by monocytes activated with bacterial lipopolysaccharide (LPS)
Test: Lipopolysaccharide-activated monocyte TNF production assay
Type: cell-based, human
Details: TNF in supernatant by ELISA, read-out: IC50 values in the monocyte assay (LPS induced TNF release)
Procedure: Lipopolysaccharide-activated Monocyte TNF Production Assay
Test compounds were evaluated in vitro for the ability to inhibit the production of TNF by monocytes activated with bacterial lipopolysaccharide (LPS). Fresh residual source leukocytes (a byproduct of plateletpheresis) were obtained from a local blood bank, and peripheral blood mononuclear cells (PBMCS) were isolated by density gradient centrifugation on Ficol-Paque Plus (Pharmacia). PBMCs were suspended at 2×10^6/ml in DMEM supplemented to contain 2% FCS, 10 mM, 0.3 mg/ml […], 100 U/ml penicillin G and […] streptomycin sulfate (complete media). Cells were plated into Falcon flat bottom, 96 well culture plates (200 μl/well) and cultured overnight at 37° C. and 6% CO2. Non-adherent cells were removed by washing with 200 μl/well of fresh medium. Wells containing adherent cells (˜70% monocytes) were replenished with 100 μl of fresh medium.
Preparation of Test Compound Stock Solutions
Test compounds were dissolved in […]. Compound stock solutions were prepared to an initial concentration of […]. Stocks were diluted initially to 20-200 μM in complete media. Nine two-fold serial dilutions of each compound were then prepared in complete medium.
Treatment of Cells with Test Compounds and Activation of TNF Production with Lipopolysaccharide
One hundred microliters of each test compound dilution were added to microtiter wells containing adherent monocytes and 100 μl complete medium. Monocytes were cultured with test compounds for 60 min at which time 25 μl of complete medium containing 30 ng/ml lipopolysaccharide from E. coli K532 were added to each well. Cells were cultured an additional 4 hrs. Culture supernatants were then removed and TNF presence in the supernatants was quantified using an ELISA.
Flat bottom, 96 well Corning High Binding ELISA plates were coated overnight (4° C.) with 150 μL/well of 3 μg/ml murine anti-human TNF-α MAb (R&D Systems #MAB210). Wells were then blocked for 1 hr at room temperature with 200 μL/well of CaCl2-free ELISA buffer supplemented to contain 20 mg/ml BSA (standard ELISA buffer: […], 150 mM NaCl, 2 mM CaCl2, 0.15 mM thimerosal, pH 7.4). Plates were washed and replenished with 100 μl of test supernatants (diluted 1:3) or standards. Standards consisted of eleven 1.5-fold serial dilutions from a stock of 1 ng/ml recombinant human TNF (R&D Systems). Plates were incubated at room temperature for 1 hr on orbital shaker (300 rpm), washed and replenished with 100 μl/well of 0.5 μg/ml goat anti-human TNF-α (R&D systems #AB-210-NA) biotinylated at a 4:1 ratio. Plates were incubated for 40 min, washed and replenished with 100 μl/well of alkaline phosphatase-conjugated streptavidin (Jackson ImmunoResearch #016-050-084) at 0.02 μg/ml. Plates were incubated 30 min, washed and replenished with 200 μl/well of 1 mg/ml of p-nitrophenyl phosphate. After 30 min, plates were read at 405 nm on a Vmax plate reader.
Standard curve data were fit to a second order polynomial and unknown TNF-α concentrations determined from their OD by solving this equation for concentration. TNF concentrations were then plotted vs. test compound concentration using a second order polynomial. This equation was then used to calculate the concentration of test compounds causing a 50% reduction in TNF production.

Compound	IC50 (Homo sapiens, Monocyte)	other results
5-(4-Fluorophenyl)-2-((3-imidazolylpropyl)-amino)-4-(4-pyridyl)-pyrimidine [Example 2-24]	–	IC50: ≤ 5 µM
O=C1CCCN1CCCNc1ncc(-c2ccc(F)cc2)c(-c2ccncc2)n1 [Example 2-34, 5-(4-Fluorophenyl)-2-(3-(2-pyrrolidinon-1-yl)-propylamino)-4-(4-pyridyl)-pyrimidine]	≤ 20 µM	–
O=c1[nH]c(Cc2c(Cl)cccc2Cl)nc(-c2ccncc2)c1-c1ccc(F)cc1 [Example 4-3, 2-(2,6-Dichlorobenzyl)-5-(4-fluorophenyl)-6-(4-pyridyl)-4(3H)-pyrimidinone]	≤ 20 µM	–
O=c1[nH]c(SCCOc2ccccc2)nc(-c2ccncc2)c1-c1ccc(F)cc1 [Example 5-3, 5-(4-Fluorophenyl)-2-(2-phenoxyethyl)thio-6-(4-pyridyl)-4(3H)-pyrimidinone]	≤ 20 µM	–
O=c1[nH]c(NCCCc2ccccc2)nc(-c2ccncc2)c1-c1ccc(F)cc1 [Example 6-2, 5-(4-Fluorophenyl)-2-((3-phenylpropyl)-amino)-6-(4-pyridyl)-4(3H)-pyrimidinone]	–	IC50: ≤ 5 µM
Fc1ccc(-c2cnc(Cc3c(Cl)cccc3Cl)nc2-c2ccncc2)cc1 [Example 1-8, 2-(2,6-Dichlorobenzyl)-5-(4-fluorophenyl)-4-(4-pyridyl)-pyrimidine]	≤ 20 µM	–
COc1cccc(CCNc2ncc(-c3ccc(F)cc3)c(-c3ccncc3)n2)c1 [Example 2-18, 5-(4-Fluorophenyl)-2-(2-(3-methoxyphenyl)-ethylamino)-4-(4-pyridyl)-pyrimidine]	≤ 20 µM	–
Fc1ccc(CCNc2ncc(-c3ccc(F)cc3)c(-c3ccncc3)n2)cc1 [Example 2-8, 5-(4-Fluorophenyl)-2-(2-(4-fluorophenyl)-ethylamino)-4-(4-pyridyl)-pyrimidine]	–	IC50: ≤ 5 µM
Fc1ccc(Nc2ncc(-c3ccc(F)cc3)c(-c3ccncc3)n2)cc1 [Example 1-27, 5-(4-Fluorophenyl)-2-(4-fluorophenylamino)-4-(4-pyridyl)-pyrimidine]	≤ 20 µM	–
CCN(CC)CCNc1ncc(-c2ccc(F)cc2)c(-c2ccncc2)n1 [Example 1-22, 2-(2-Diethylaminoethylamino)-5-(4-fluorophenyl)-4-(4-pyridyl)-pyrimidine]	≤ 20 µM	–
Fc1ccc(-c2cnc(NCCc3ccc(Br)cc3)nc2-c2ccncc2)cc1 [Example 2-10, 2-(2-(4-Bromophenyl)-ethylamino)-5-(4-fluorophenyl)-4-(4-pyridyl)-pyrimidine]	≤ 20 µM	–
NCCCCNc1ncc(-c2ccc(F)cc2)c(-c2ccncc2)n1 [Example 2-3, 2-(4-Aminobutylamino)-5-(4-fluorophenyl)-4-(4-pyridyl)-pyrimidine hydrochloride]	≤ 20 µM	–
CC(CCc1ccccc1)Nc1nc(-c2ccncc2)c(-c2ccc(F)cc2)c(=O)[nH]1 (centres unmarked) [Example 6-3, 5-(4-Fluorophenyl)-2-((1-methyl-3-phenylpropyl)-amino)-6-(4-pyridyl)-4(3H)-pyrimidinone]	–	IC50: ≤ 5 µM
Fc1ccc(-c2cnc(NCCCCc3ccccc3)nc2-c2ccncc2)cc1 [Example 2-25, 5-(4-Fluorophenyl)-2-((4-phenyl-n-butyl)-amino)-4-(4-pyridyl)-pyrimidine]	≤ 20 µM	–
COc1ccccc1CCNc1ncc(-c2ccc(F)cc2)c(-c2ccncc2)n1 [Example 2-15, 5-(4-Fluorophenyl)-2-(2-(2-methoxyphenyl)-ethylamino)-4-(4-pyridyl)-pyrimidine]	≤ 20 µM	–
Fc1ccc(-c2cnc(CSc3ccccc3)nc2-c2ccncc2)cc1 [Example 1-10, 5-(4-Fluorophenyl)-2-phenylthiomethyl-4-(4-pyridinyl)-pyrimidine]	≤ 20 µM	–

Compound	IC50 (Homo sapiens, Monocyte)	other results
Fc1ccc(-c2cnc(-c3cccs3)nc2-c2ccncc2)cc1 [Example 1-18, 5-(4-Fluorophenyl)-4-(4-pyridyl)-2-(2-thienyl)-pyrimidine]	≤ 20 µM	–
Fc1ccc(-c2cnc(NCCCc3ccccc3)nc2-c2ccncc2)cc1 [Example 2-22, 5-(4-Fluorophenyl)-2-((3-phenylpropyl)-amino)-4-(4-pyridyl)-pyrimidine]	–	IC50: ≤ 5 µM
O=c1[nH]c(SCCNc2ccccc2)nc(-c2ccncc2)c1-c1ccc(F)cc1 [Example 5-4, 5-(4-Fluorophenyl)-2-(2-phenylaminoethyl)thio-6-(4-pyridyl)-4(3H)-pyrimidinone]	≤ 20 µM	–
Fc1ccc(-c2cnc(N3CCOCC3)nc2-c2ccncc2)cc1 [Example 1-33, 5-(4-Fluorophenyl)-2-morpholino-4-(4-pyridyl)-pyrimidine]	≤ 20 µM	–
CN(CCc1ccccc1)c1ncc(-c2ccc(F)cc2)c(-c2ccncc2)n1 [Example 2-21, 5-(4-Fluorophenyl)-2-(methyl-(2-phenylethyl)-amino)-4-(4-pyridyl)-pyrimidine]	–	IC50 (listed as 5-(4-Fluorophenyl)-2-(N-methyl-N-(2-phenylethyl)amino)-4-(4-pyridyl)-pyrimidine): ≤ 5 µM
Fc1ccc(-c2cnc(Nc3c(Cl)cccc3Cl)nc2-c2ccncc2)cc1 [Example 1-24, 2-(2,6-Dichlorophenylamino)-5-(4-fluorophenyl)-4-(4-pyridyl)-pyrimidine]	≤ 20 µM	–
Fc1ccc(-c2cnc(NCCN3CCOCC3)nc2-c2ccncc2)cc1 [Example 2-30, 5-(4-Fluorophenyl)-2-(2-morpholinoethylamino)-4-(4-pyridyl)-pyrimidine]	≤ 20 µM	–
CC(CCc1ccccc1)Nc1ncc(-c2ccc(F)cc2)c(-c2ccncc2)n1 (centres unmarked) [Example 2-23, 5-(4-Fluorophenyl)-2-((1-methyl-3-phenylpropyl)-amino)-4-(4-pyridyl)-pyrimidine]	≤ 20 µM	–
Fc1ccc(-c2cnc(NCCN3CCCCC3)nc2-c2ccncc2)cc1 [Example 2-31, 5-(4-Fluorophenyl)-2-(2-piperidinoethylamino)-4-(4-pyridyl)-pyrimidine]	≤ 20 µM	–
Cc1cccc(C)c1Nc1ncc(-c2ccc(F)cc2)c(-c2ccncc2)n1 [Example 1-25, 2-(2,6-Dimethylphenylamino)-5-(4-fluorophenyl)-4-(4-pyridyl)-pyrimidine]	≤ 20 µM	–
Oc1ccc(CCNc2ncc(-c3ccc(F)cc3)c(-c3ccncc3)n2)cc1 [Example 2-11, 5-(4-Fluorophenyl)-2-(2-(4-hydroxyphenyl)-ethylamino)-4-(4-pyridyl)-pyrimidine]	–	IC50: ≤ 5 µM
Fc1ccc(-c2cnc(-c3ccncc3)nc2-c2ccncc2)cc1 [Example 11, 5-(4-Fluorophenyl)-2,4-bis-(4-pyridyl)-pyrimidine]	≤ 20 µM	–
Fc1ccc(-c2cnc(NCCc3ccccc3F)nc2-c2ccncc2)cc1 [Example 2-13, 5-(4-Fluorophenyl)-2-(2-(2-fluorophenyl)-ethylamino)-4-(4-pyridyl)-pyrimidine]	–	IC50: ≤ 5 µM
Fc1ccc(-c2cnc(NCCN3CCCC3)nc2-c2ccncc2)cc1 [Example 2-32, 5-(4-Fluorophenyl)-4-(4-pyridyl)-2-(2-pyrrolidinoethylamino)-pyrimidine]	≤ 20 µM	–
Nc1ccc(CCNc2ncc(-c3ccc(F)cc3)c(-c3ccncc3)n2)cc1 [Example 2-12, 2-(2-(4-Aminophenyl)-ethylamino)-5-(4-fluorophenyl)-4-(4-pyridyl)-pyrimidine]	≤ 20 µM	–
OC(CNc1ncc(-c2ccc(F)cc2)c(-c2ccncc2)n1)c1ccccc1 (centres unmarked) [Example 2-20, 5-(4-Fluorophenyl)-2-((2-hydroxy-2-phenyl)-ethylamino)-4-(4-pyridyl)-pyrimidine]	–	IC50: ≤ 5 µM
